Nine compounds from PubChem BioAssay (NCI) can be followed below.

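A five-concentration, 48-hour dose response in 96-well plates underlies each endpoint, interpolated linearly between surrounding concentrations. TGI denotes the concentration required for complete inhibition of growth.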

Among the test systems are DLD-1 colon; DMS 273 small cell lung; HOP-18 NSCLC; KM20L2 colon; LXFL 529 NSCLC; M19-MEL melanoma; SNB-78 CNS; XF 498 CNS; RXF-631 renal.
What all share (assay): NCI tumour cell line growth inhibition, 48 h

Turning to `CCOc1ccc(C2=NN(CC)C(=O)C(C3C(=O)N(c4ccccc4)N=C3C)C2)cc1` (configuration not stated), the TGI in the assay on DLD-1 colon, with DMS 273 small cell lung, in the assay on HOP-18 NSCLC, in the assay on KM20L2 colon, in the assay with LXFL 529 NSCLC and with M19-MEL melanoma was greater than 100 µM in each case. In addition, the TGI in the assay on SNB-78 CNS and in the assay on XF 498 CNS was greater than 100 µM throughout.
Turning to `C=CCNC(=S)NNC(=O)c1c(C)nc2sccn12`, the TGI with DLD-1 colon, in the assay with DMS 273 small cell lung, in the assay with HOP-18 NSCLC, in the assay on KM20L2 colon, in the assay with LXFL 529 NSCLC and in the assay with M19-MEL melanoma was greater than 100 µM throughout. The TGI in the assay with RXF-631 renal and in the assay with XF 498 CNS was greater than 100 µM each time.
Consider `COc1cc2c(oc(=O)c3c4occc4cc(OC)c23)c2cccc(O)c12`, for which the TGI in the assay with DLD-1 colon, in the assay on DMS 273 small cell lung, in the assay with HOP-18 NSCLC, in the assay on KM20L2 colon, with LXFL 529 NSCLC and in the assay with M19-MEL melanoma was greater than 100 µM in each case. Moreover, the TGI with SNB-78 CNS and with XF 498 CNS was greater than 100 µM throughout.
For `CNC(=S)N/N=C/C(C)=N/NC(=S)NC`, the TGI with DMS 273 small cell lung, in the assay with HOP-18 NSCLC, with KM20L2 colon, in the assay on M19-MEL melanoma and in the assay on SNB-78 CNS was greater than 100 µM each time.
`Nc1cccc(-c2cc(=O)c3cc4c(cc3[nH]2)OCO4)c1`: the TGI in the assay with DMS 273 small cell lung was 3.83 µM; in the assay with HOP-18 NSCLC, greater than 100 µM; in the assay on LXFL 529 NSCLC, greater than 100 µM; in the assay with M19-MEL melanoma, greater than 100 µM; with SNB-78 CNS it was greater than 100 µM; in the assay with XF 498 CNS it was greater than 100 µM.
As for `Cc1ccc(C)c2c1C1CCCCC3(OCCCO3)C21O` (configuration not stated), the TGI in the assay with DLD-1 colon, in the assay with DMS 273 small cell lung, in the assay with HOP-18 NSCLC, in the assay with KM20L2 colon, with LXFL 529 NSCLC and in the assay with M19-MEL melanoma was greater than 100 µM throughout. In the assay with SNB-78 CNS, this compound returned a TGI greater than 100 µM.
As for `OC12CCC3(OC4CCCCO4)c4ccccc4C3C1c1ccccc12` (configuration not stated), the TGI in the assay with DMS 273 small cell lung, with HOP-18 NSCLC, in the assay with KM20L2 colon, with LXFL 529 NSCLC, with M19-MEL melanoma and with SNB-78 CNS was greater than 100 µM throughout. In the assay on XF 498 CNS, the TGI is greater than 100 µM.
As for `C/C(=C\C(=O)Nc1ccc2n[nH]nc2c1)Nc1ccc2n[nH]nc2c1`, the TGI with DLD-1 colon, with HOP-18 NSCLC, in the assay on KM20L2 colon, in the assay on LXFL 529 NSCLC, in the assay on M19-MEL melanoma and in the assay with RXF-631 renal was greater than 100 µM each time. The TGI in the assay with SNB-78 CNS was greater than 100 µM.
With `Nc1nc(SCc2ccccc2Cl)c2ncn(C3OC(CO)C(O)C3O)c2n1` (configuration not stated), the TGI in the assay on DLD-1 colon, with DMS 273 small cell lung, with HOP-18 NSCLC, in the assay on KM20L2 colon, with LXFL 529 NSCLC and with M19-MEL melanoma was greater than 100 µM each time.
